Values joined by “and” are separate entries in the source; they are usually repeats but may differ in a detail not shown here. Equal entries are not always repeated. Where two headings read alike, the source gives them in different places.
Key:
[1] = Log D(dec/w) shake flask partition coefficient; format: physicochemical; details: 1,9-decadiene/PBS; 1,9-decadiene and PBS pH 7.4 shake flask partition coefficient
[2] = target: T1, VHL (VCB, VHL:ElonginC:ElonginB) (Homo sapiens, UniProt P40337); assay: FP competition binding, binary binding to VHL
T1 construct: His6 (N, cleaved yes); made in house; host or cells: Escherichia coli

[3] = human
P-gp (human MDR1) = assay: in vitro; details: dog; for Papp A→B at 5 µM / Papp B→A at 5 µM: MDCK-MDR1; for efflux ratio at 5 µM: MDCK-MDR1, Efflux ratio B-A/A-B, MDCK-MDR1, 5 µM, N = 2
[4] = LPEester – LPEamide by amide–ester matched pairs
in vitro = details: PAMPA
VHL + Brd2BD1 = target: T2, VHL + Brd2BD1 (Homo sapiens, UniProt P25440+P40337); assay: FP competition, ternary binding to VHL with Brd2BD1
T2 construct: His6 (N, cleaved yes); made in house; host or cells: E. coli

VHL + Brd2BD2 = target: T3, VHL + Brd2BD2 (Homo sapiens, UniProt P25440+P40337); assay: FP competition, ternary binding to VHL with Brd2BD2
T3 construct: Brd2-BD2 (344–455); His6 (N, cleaved yes); made in house; host or cells: E. coli

VHL + Brd3BD2 = target: T4, VHL + Brd3BD2 (Homo sapiens, UniProt P40337+Q15059); assay: FP competition, ternary binding to VHL with Brd3BD2
T4 construct: Brd3-BD2 (306–416); His6 (N, cleaved yes); made in house; host or cells: E. coli

VHL + Brd4BD2 = target: T5, VHL + Brd4BD2 (Homo sapiens, UniProt O60885+P40337); format: binding
T5 construct: Brd4-BD2 (333–460); His6 (N, cleaved yes); made in house; host or cells: E. coli

Brd4 = target: T6, Brd4 (Homo sapiens, UniProt O60885); assay: Western blot degradation of Brd4 in HEK293 cells; format: cell-based; details: HEK293, 4 h, 10 μM, N = 1
T6 construct: endogenous in cells; host or cells: HEK293

Brd2 = target: T7, Brd2 (Homo sapiens, UniProt P25440); assay: Western blot degradation of Brd2 in HEK293 cells; format: cell-based
T7 construct: endogenous in cells; host or cells: HEK293

VHL + Brd3BD1 = VHL + Brd3BD1 (Homo sapiens, UniProt P40337+Q15059)
VHL + Brd4BD1 = VHL + Brd4BD1 (Homo sapiens, UniProt O60885+P40337)
[5] = compound alone to VHL, FP competition with FAM-HIF-1α peptide, mean ± SEM, read-out: Kd binary
[6] = Log10(α) = pKd ternary - pKd binary

Cc1ncsc1-c1ccc(CNC(=O)[C@@H]2C[C@@H](O)CN2C(=O)[C@@H](NC(=O)CCCCCNC(=O)Cc2ccccc2)C(C)(C)C)cc1 [Compound 3, (2S,4R)-1-((S)-3,3-Dimethyl-2-(6-(2-phenylacetamido)hexanamido)butanoyl)-4-hydroxy-N-(4-(4-methylthiazol-5-yl)benzyl)pyrrolidine-2-carboxamide]
logD hydrocarbon water [1]: -1.5
Kd [2, 5]: 119 nM
Plasma stability [3]: 130 ± 3%
Papp A→B at 5 µM (P-gp (human MDR1)): 0.7 ×10⁻⁶ cm/s
Papp B→A at 5 µM (P-gp (human MDR1)): 8.4 ×10⁻⁶ cm/s
efflux ratio at 5 µM (P-gp (human MDR1)): 12

CCCCOc1ccc(-c2ccc(C(=O)NCCCCCC(=O)N[C@H](C(=O)N3C[C@H](O)C[C@H]3C(=O)NCc3ccc(-c4scnc4C)cc3)C(C)(C)C)cc2)cc1 [Compound 7, (2S,4R)-1-((S)-2-(6-(4′-Butoxy-[1,1′-biphenyl]-4-carboxamido)hexanamido)-3,3-dimethylbutanoyl)-4-hydroxy-N-(4-(4-methylthiazol-5-yl)benzyl)pyrrolidine-2-carboxamide]
logD hydrocarbon water [1]: 1
Plasma stability [3]: 83 ± 14%
Papp B→A at 5 µM (P-gp (human MDR1)): 0.2 ×10⁻⁶ cm/s

COCC(=O)OCCCCCC(=O)N[C@H](C(=O)N1C[C@H](O)C[C@H]1C(=O)NCc1ccc(-c2scnc2C)cc1)C(C)(C)C [Compound 8, 6-(((S)-1-((2S,4R)-4-Hydroxy-2-((4-(4-methylthiazol-5-yl)benzyl)carbamoyl)pyrrolidin-1-yl)-3,3-dimethyl-1-oxobutan-2-yl)amino)-6-oxohexyl 2-methoxyacetate]
logD hydrocarbon water [1]: -1.7
ΔLPE [4]: -0.2
Plasma stability [3]: 1 ± 0.4%
Papp A→B at 5 µM (P-gp (human MDR1)): 0.4 ×10⁻⁶ cm/s
Papp B→A at 5 µM (P-gp (human MDR1)): 11 ×10⁻⁶ cm/s
efflux ratio at 5 µM (P-gp (human MDR1)): 26

CCCC(=O)OCCCCCC(=O)N[C@H](C(=O)N1C[C@H](O)C[C@H]1C(=O)NCc1ccc(-c2scnc2C)cc1)C(C)(C)C [Compound 9, 6-(((S)-1-((2S,4R)-4-Hydroxy-2-((4-(4-methylthiazol-5-yl)benzyl)carbamoyl)pyrrolidin-1-yl)-3,3-dimethyl-1-oxobutan-2-yl)amino)-6-oxohexyl Butyrate]
logD hydrocarbon water [1]: -0.5
ΔLPE [4]: 1.1
Plasma stability [3]: 13 ± 1%
Papp (in vitro): 6.5 ×10⁻⁶ cm/s
Papp A→B at 5 µM (P-gp (human MDR1)): 0.9 ×10⁻⁶ cm/s
Papp B→A at 5 µM (P-gp (human MDR1)): 47 ×10⁻⁶ cm/s
efflux ratio at 5 µM (P-gp (human MDR1)): 55

Cc1ncsc1-c1ccc(CNC(=O)[C@@H]2C[C@@H](O)CN2C(=O)[C@@H](NC(=O)CCCCCOC(=O)Cc2ccccc2)C(C)(C)C)cc1 [Compound 10, 6-(((S)-1-((2S,4R)-4-Hydroxy-2-((4-(4-methylthiazol-5-yl)benzyl)carbamoyl)pyrrolidin-1-yl)-3,3-dimethyl-1-oxobutan-2-yl)amino)-6-oxohexyl 2-phenylacetate]
Kd [2, 5]: 136 nM

Cc1ncsc1-c1ccc(CNC(=O)[C@@H]2C[C@@H](O)CN2C(=O)[C@@H](NC(=O)CCCCCOC(=O)C2CCCCC2)C(C)(C)C)cc1 [Compound 11, 6-(((S)-1-((2S,4R)-4-Hydroxy-2-((4-(4-methylthiazol-5-yl)benzyl)carbamoyl)pyrrolidin-1-yl)-3,3-dimethyl-1-oxobutan-2-yl)amino)-6-oxohexyl cyclohexanecarboxylate]
logD hydrocarbon water [1]: 1.1
ΔLPE [4]: 1.8
Plasma stability [3]: 14 ± 1%
Papp A→B at 5 µM (P-gp (human MDR1)): 0.3 ×10⁻⁶ cm/s
Papp B→A at 5 µM (P-gp (human MDR1)): 35.6 ×10⁻⁶ cm/s
efflux ratio at 5 µM (P-gp (human MDR1)): 142

Cc1ncsc1-c1ccc(CNC(=O)[C@@H]2C[C@@H](O)CN2C(=O)[C@@H](NC(=O)CCCCCOC(=O)CC23CC4CC(CC(C4)C2)C3)C(C)(C)C)cc1 [Compound 12, 6-(((S)-1-((2S,4R)-4-Hydroxy-2-((4-(4-methylthiazol-5-yl)benzyl)carbamoyl)pyrrolidin-1-yl)-3,3-dimethyl-1-oxobutan-2-yl)amino)-6-oxohexyl 2-(adamantan-1-yl)acetate]
logD hydrocarbon water [1]: 2.4
ΔLPE [4]: 1.8
Plasma stability [3]: 80 ± 11%
Papp B→A at 5 µM (P-gp (human MDR1)): 4.5 ×10⁻⁶ cm/s

Cc1ncsc1-c1ccc(CNC(=O)[C@@H]2C[C@@H](O)CN2C(=O)[C@@H](NC(=O)CCCCCOC(=O)CC(c2ccccc2)c2ccccc2)C(C)(C)C)cc1 [Compound 13, 6-(((S)-1-((2S,4R)-4-Hydroxy-2-((4-(4-methylthiazol-5-yl)benzyl)carbamoyl)pyrrolidin-1-yl)-3,3-dimethyl-1-oxobutan-2-yl)amino)-6-oxohexyl 3,3-diphenylpropanoate]
logD hydrocarbon water [1]: 1.9
ΔLPE [4]: 1.6
Plasma stability [3]: 58 ± 6%
Papp A→B at 5 µM (P-gp (human MDR1)): 0.2 ×10⁻⁶ cm/s
Papp B→A at 5 µM (P-gp (human MDR1)): 13.9 ×10⁻⁶ cm/s
efflux ratio at 5 µM (P-gp (human MDR1)): 84

Cc1ncsc1-c1ccc(CNC(=O)[C@@H]2C[C@@H](O)CN2C(=O)[C@@H](NC(=O)CCOCCNC(=O)Cc2ccccc2)C(C)(C)C)cc1 [Compound 15, (2S,4R)-1-((S)-3,3-Dimethyl-2-(3-(2-(2-phenylacetamido)ethoxy)propanamido)butanoyl)-4-hydroxy-N-(4-(4-methylthiazol-5-yl)benzyl)pyrrolidine-2-carboxamide]
logD hydrocarbon water [1]: -1.4
Kd [2, 5]: 171 ± 14 nM
Plasma stability [3]: 103 ± 14%
Papp A→B at 5 µM (P-gp (human MDR1)): 0.4 ×10⁻⁶ cm/s
Papp B→A at 5 µM (P-gp (human MDR1)): 4.6 ×10⁻⁶ cm/s
efflux ratio at 5 µM (P-gp (human MDR1)): 13

Cc1ncsc1-c1ccc(CNC(=O)[C@@H]2C[C@@H](O)CN2C(=O)[C@@H](NC(=O)CCOCCOCCNC(=O)Cc2ccccc2)C(C)(C)C)cc1 [Compound 16, (2S,4R)-1-((S)-14-(tert-Butyl)-2,12-dioxo-1-phenyl-6,9-dioxa-3,13-diazapentadecan-15-oyl)-4-hydroxy-N-(4-(4-methylthiazol-5-yl)benzyl)pyrrolidine-2-carboxamide]
logD hydrocarbon water [1]: -2.3
Kd [2, 5]: 172 ± 17 nM
Plasma stability [3]: 151 ± 30%
Papp B→A at 5 µM (P-gp (human MDR1)): 3.3 ×10⁻⁶ cm/s

Cc1ncsc1-c1ccc(CNC(=O)[C@@H]2C[C@@H](O)CN2C(=O)[C@@H](NC(=O)CCOCCOCCOCCNC(=O)Cc2ccccc2)C(C)(C)C)cc1 [Compound 17, (2S,4R)-1-((S)-17-(tert-Butyl)-2,15-dioxo-1-phenyl-6,9,12-trioxa-3,16-diazaoctadecan-18-oyl)-4-hydroxy-N-(4-(4-methylthiazol-5-yl)benzyl)pyrrolidine-2-carboxamide]
logD hydrocarbon water [1]: -1.9
Kd [2, 5]: 138 nM
Plasma stability [3]: 133 ± 18%
Papp B→A at 5 µM (P-gp (human MDR1)): 2 ×10⁻⁶ cm/s

Cc1ncsc1-c1ccc(CNC(=O)[C@@H]2C[C@@H](O)CN2C(=O)[C@@H](NC(=O)CCOCCOC(=O)Cc2ccccc2)C(C)(C)C)cc1 [Compound 18, 2-(3-(((S)-1-((2S,4R)-4-Hydroxy-2-((4-(4-methylthiazol-5-yl)benzyl)carbamoyl)pyrrolidin-1-yl)-3,3-dimethyl-1-oxobutan-2-yl)amino)-3-oxopropoxy)ethyl 2-phenylacetate]
Kd [2]: 232 ± 47 nM
Kd [2, 5]: ~200 nM

Cc1ncsc1-c1ccc(CNC(=O)[C@@H]2C[C@@H](O)CN2C(=O)[C@@H](NC(=O)CCOCCOCCOC(=O)Cc2ccccc2)C(C)(C)C)cc1 [Compound 19, 2-(2-(3-(((S)-1-((2S,4R)-4-Hydroxy-2-((4-(4-methylthiazol-5-yl)benzyl)carbamoyl)pyrrolidin-1-yl)-3,3-dimethyl-1-oxobutan-2-yl)amino)-3-oxopropoxy)ethoxy)ethyl 2-phenylacetate]
Kd [2, 5]: 197 ± 27 nM

Cc1ncsc1-c1ccc(CNC(=O)[C@@H]2C[C@@H](O)CN2C(=O)[C@@H](NC(=O)CCOCCOCCOCCOC(=O)Cc2ccccc2)C(C)(C)C)cc1 [Compound 20, (S)-14-((2S,4R)-4-Hydroxy-2-((4-(4-methylthiazol-5-yl)benzyl)carbamoyl)pyrrolidine-1-carbonyl)-15,15-dimethyl-12-oxo-3,6,9-trioxa-13-azahexadecyl 2-phenylacetate]
Kd [2, 5]: 144 nM

Cc1ncsc1-c1ccc([C@H](C)NC(=O)[C@@H]2C[C@@H](O)CN2C(=O)[C@@H](NC(=O)COCCCOCCNC(=O)C[C@@H]2N=C(c3ccc(Cl)cc3)c3c(sc(C)c3C)-n3c(C)nnc32)C(C)(C)C)cc1 [Compound 22, ARV-771]
ΔpKd (VHL + Brd2BD1; [6]): 0.38
Cooperativity α (VHL + Brd2BD1; α = Kd binary/Kd ternary): 2.4
ΔpKd (VHL + Brd2BD2; [6]): 0.66
Kd (VHL + Brd2BD2; read-out: pKd ternary (converted)): 7.41 nM
Cooperativity α (VHL + Brd2BD2; α = Kd binary/Kd ternary): 4.6
ΔpKd (VHL + Brd3BD2; [6]): 0.64
Cooperativity α (VHL + Brd3BD2; α = Kd binary/Kd ternary): 4.3
ΔpKd (VHL + Brd4BD2; [6]): 1.12
Cooperativity α (VHL + Brd4BD2; α = Kd binary/Kd ternary): 13
Hook effect, Brd4 protein levels (Brd4): exhibited a hook effect
pDC50 Brd2 (Brd2; HEK293, 4 h, 1 μM to 100 pM, mean ± S.E., three experiments): 6.9 ± 0.2 and 7.4 ± 0.1
DC50 (Brd2; read-out: DC50 Brd2, HEK293 cells): 42 nM
ΔpKd (VHL + Brd3BD1; [6]): 0.30
Cooperativity α (VHL + Brd3BD1; α = Kd binary/Kd ternary): 2.0
ΔpKd (VHL + Brd4BD1; [6]): 0.42
Cooperativity α (VHL + Brd4BD1; α = Kd binary/Kd ternary): 2.6
